Measurements taken from patent US12544431B2, “Peptides for the treatment of cancer and/or metastasis” (BCN PEPTIDES, S.A., priority 2019, dated 2026).
“Also recorded” adds a separate entry of the source. Marks after values point to notes of the source that are not given here. Where a SMILES comes first, the peptide text is derived from it. [ ]: non-standard residue; d: D form. Phe(2,4,6-Me3) = Cc1cc(C)c(C[C@H](N)C(=O)O)c(C)c1; pGlu = O=C1CC[C@@H](C(=O)O)N1

Tests used:
[1] = test system: MDA-MB-231 breast cancer cells; assay: Transwell invasion assay, MDA-MB-231 cells; type: cell-based
Method: (§1) 10^5 RH30 or RD cells were plated in the upper chamber of a Matrigel-coated transwell (Corning) in 0.1 mL medium without FBS. Cells were previously incubated with different concentrations (0 nM, 100 nM, 200 nM, 500 nM and 1000 nM) of the peptides and peptide dimer for 48 hours, being also present in the medium during the cell invasion assay. In the lower chamber, 0.6 mL of medium with FBS was added. Cells were incubated at 37° ° C. for 24 hours.
(§2) After that, cells were fixed with 4% paraformaldehyde (Sigma) for 10 minutes, followed by washing with PBS. After removal of the Matrigel and remaining cells from the upper face of the membrane with a cotton swab, the cells present on the lower face were stained with a Hoechst dilution (Sigma) and were counted (5 fields for each well) with an inverted fluorescence microscope Nikon with a 10× objective. All experiments were made in triplicate. In Table 6 the % Invasiveness represents the mean percentage of invasive cells with respect to their controls.
(§3) The transwell assay with neuroblastoma cell lines (CHLA-90, BE(2)-C and SK—N-BE(2)-C)) and breast cancer cell lines (MDA-MB-231 and MDA-MB-468) was performed at the same conditions detailed for determining the % of invasiveness in rhabdomyosarcoma cells.

[2] = test system: CHLA-90 neuroblastoma cells; assay: Transwell invasion assay, CHLA-90 cells; type: cell-based
Method: as §1, §2
(§4) The transwell assay with CHLA-90 and BE(2)-C cell lines was done following the same conditions detailed for determining the % of invasiveness in rhabdomyosarcoma cells.
as §3

[3] = test system: RD rhabdomyosarcoma cells; assay: Matrigel-coated transwell invasion assay, RD cells; type: cell-based; settings: % invasive cells vs non-treated control
Method: as §1, §2

[4] = In vitro stability, half-life in human plasma; type: in vitro ADME; settings: 90% human plasma, 37° C., RP-HPLC; read-out: t½ (hours) in human plasma (converted)
Method: The peptides and peptide dimer synthesized and prepared in accordance with Example 1 were dissolved in water at a concentration of 6 mg/mL and warmed up to 37° C.
Human plasma was obtained as a lyophilized solid (K3 EDTA Plasma, BBI Solutions, code S112-1), reconstituted with sterile 0.9% sodium chloride solution and stored at −20° C. Human plasma was thawed and incubated at 37° C. before use.
The peptides and peptide dimer were incubated in 90% human plasma at 37° C. for different times and then precipitated with two volume equivalents of methanol. The samples were cooled in an acetone-carbon dioxide bath for a few seconds and centrifuged for 12 minutes at 4° C. at approximately 10,000 rpm. The supernatant was filtered with a 0.45 μm PVDF filter and analyzed in triplicate by RP-HPLC using an isocratic method (Eluent A=0.1% TFA in water; Eluent B=0.07% TFA in ACN, Column=Kromasil C8, 100 Å, 5 μm, 250×4.6 mm, Flow=1 mL/min, Wavelength: 220 nm, Injection volume=20 μL, Temperature=60° C.). The disappearance of the compound was determined in relation to the area of the initial time to calculate its half-life.

[5] = test system: BE(2)-C neuroblastoma cells; assay: Transwell invasion assay, BE(2)-C cells; type: cell-based
Method: as §1, §2, §4, §3

[6] = test system: RD rhabdomyosarcoma cells; assay: Rhabdomyosarcoma metastatic mice model (RD cells i.v. in tail vein); type: in vivo, SCID/Beige mice; settings: for event-free survival vs vehicle group (in words): 27-week study; for Absence of metastases, number of mice / Absence of metastases, percentage of mice / Presence of metastases (%), percentage of mice / Presence of metastases, number of mice: 27 weeks; for body weight, treated vs vehicle-treated mice (in words): along the 27-week study
Method: SCID/Beige female mice aged of 5 weeks were administered subcutaneously (s.c.) at day −1 with the first dose of treatment i.e. the vehicle (PBS, Phosphate buffered saline) or the peptides. On day 0, mice were injected intravenously (i.v.) in the tail vein with 2×10^6 RD rhabdomyosarcoma cells.
Body weight was evaluated twice per week for 27 weeks. Overall survival and event-free survival were determined. At necropsy, the total number of metastases were quantified and the number of metastases per mice and their localization were also reported.

[7] = test system: MDA-MB-468 breast cancer cells; assay: Transwell invasion assay, MDA-MB-468 cells; type: cell-based
Method: as §1, §2, §3

[8] = test system: RH30 rhabdomyosarcoma cells; assay: Matrigel-coated transwell invasion assay, RH30 cells; type: cell-based; settings: for % Invasiveness RH30: % invasive cells vs non-treated control
Method: as §1, §2

[9] = test system: SK-N-BE(2)-C neuroblastoma cells; assay: Transwell invasion assay, SK-N-BE(2)-C cells; type: cell-based
Method: as §1, §2, §3

[10] = test system: BE(2)-C neuroblastoma cells; assay: Neuroblastoma metastatic mice model (BE(2)-C cells i.v. in tail vein); type: in vivo, SCID/Beige mice; settings: for Absence of metastases, number of mice / Absence of metastases, percentage of mice / Presence of metastases (%), percentage of mice / Presence of metastases, number of mice: 13 weeks; for event-free survival, percentage of mice / event-free survival, number of mice: 13-week study; for event-free survival, number of mice: of 9 mice
Method: SCID/Beige female mice aged 5 weeks were administered subcutaneously (s.c.) at day −1 with the first dose of treatment, this is the vehicle (PBS) or the peptide SEQ ID NO: 7-NH2 at doses of 1 mg/kg and 2 mg/kg. On day 0, mice were injected intravenously (i.v.) in the tail vein with 2×10^5 BE(2)-C neuroblastoma cells. Afterwards, mice were treated s.c. three times per week (every 2-3 days) for 13 weeks with vehicle PBS (n=8) and SEQ ID NO: 7—NH2 1 mg/kg (n=9) and 2 mg/kg (n=9).

[11] = 0.5 mg/kg s.c. three times per week
[12] = 2 mg/kg s.c. three times per week
[13] = 1 mg/kg s.c. three times per week

Question: Which results are given for `CSCC[C@H](NC(=O)[C@H](CO)NC(=O)[C@H](CC(N)=O)NC(=O)[C@H](CO)NC(=O)[C@H](CO)NC(=O)[C@H](CC(=O)O)NC(=O)[C@H](CCCNC(=N)N)NC(=O)[C@H](CCCCN)NC(=O)[C@@H]1CCC(=O)N1)C(=O)N[C@@H](CC(=O)O)C(=O)N[C@@H](CC(C)C)C(=O)N1CCC[C@H]1C(=O)N[C@@H](CCC(=O)O)C(=O)N[C@@H](Cc1c(C)cc(C)cc1C)C(=O)N[C@@H](CCCCN)C(N)=O` [SEQ ID NO: 7-NH2, Pyr-Lys-Arg-Asp-Ser-Ser-Asn-Ser-Met-Asp-Leu-Pro-Glu-Msa-Lys-NH2] ([pGlu]KRDSSNSMDLPE[Phe(2,4,6-Me3)]K-NH2)?
Answer: % Invasiveness MDA-MB-231 ([1]; 100 nM peptide): 111.82%; % Invasiveness MDA-MB-231 ([1]; 200 nM peptide): 109.71%; % Invasiveness MDA-MB-231 ([1]; 500 nM peptide): 99.97%; % Invasiveness MDA-MB-231 ([1]; 1000 nM peptide (highest treatment dose)): 53.69%; % Invasiveness MDA-MB-231 ([1]; 1000 nM peptide (highest treatment dose), listed as SEQ ID NO: 7—NH2): moderate reduction; % Invasiveness CHLA-90 ([2]; 100 nM peptide): 94.31%; % Invasiveness CHLA-90 ([2]; 200 nM peptide): 52.37%; % Invasiveness CHLA-90 ([2]; 500 nM peptide): 38.94%; % Invasiveness CHLA-90 ([2]; 1000 nM peptide): 20.37* %; effect on CHLA-90 cell invasiveness (in words) ([2]; concentration not given): significant reduction in cell invasiveness; % Invasiveness RD ([3]; 100 nM peptide): 30.82* %; % Invasiveness RD ([3]; 100 nM peptide, listed as SEQ ID NO: 7—NH2): below 50%; % Invasiveness RD ([3]; 200 nM peptide): 22.94* %; % Invasiveness RD ([3]; 500 nM peptide): 17.60* %; % Invasiveness RD ([3]; 1000 nM peptide): 19.68* %; half-life at 0.6 mg/mL [4]: 40.5 h; % Invasiveness BE(2)-C ([5]; 100 nM peptide): 95.15%; % Invasiveness BE(2)-C ([5]; 200 nM peptide): 60.70* %; % Invasiveness BE(2)-C ([5]; 500 nM peptide): 56.72* %; % Invasiveness BE(2)-C ([5]; 1000 nM peptide): 33.21* %; effect on BE(2)-C cell invasiveness (in words) ([5]; concentration not given): significant reduction in cell invasiveness; event-free survival vs vehicle group (in words) ([6]; 0.5 mg/kg (lower dose)): did not show statistically significant difference; also recorded: did not show a significant effect; Absence of metastases, number of mice [6, 11]: 1; Absence of metastases, percentage of mice [6, 11]: 17%; Presence of metastases (%), percentage of mice [6, 11]: 83%; Presence of metastases, number of mice [6, 11]: 5; body weight, treated vs vehicle-treated mice (in words) ([6]; 0.5 mg/kg): vehicle-treated mice showed a statistically significant lower body weight; reduction in metastases formation ([6]; 0.5 mg/kg, vs PBS-treated mice): ~15%; number of metastases per mouse vs vehicle (in words) ([6]; 2 mg/kg (higher dose), at necropsy): statistically reduced the formation of metastases per mouse; also recorded: efficacious in the reduction of the number of metastases; Absence of metastases, number of mice [6, 12]: 5; Absence of metastases, percentage of mice [6, 12]: 71%; Presence of metastases (%), percentage of mice [6, 12]: 29%; Presence of metastases, number of mice [6, 12]: 2; event-free survival vs vehicle group (in words) ([6]; 2 mg/kg, Log-rank): significant difference; body weight, treated vs vehicle-treated mice (in words) ([6]; 2 mg/kg): vehicle-treated mice showed a statistically significant lower body weight; % Invasiveness MDA-MB-468 ([7]; 100 nM peptide): 96.71%; % Invasiveness MDA-MB-468 ([7]; 200 nM peptide): 57.65%; % Invasiveness MDA-MB-468 ([7]; 500 nM peptide): 54.53* %; % Invasiveness MDA-MB-468 ([7]; 1000 nM peptide): 48.39* %; effect on MDA-MB-468 invasiveness (in words) ([7]; under treatment, concentration not given): clear reduction of invasiveness; % Invasiveness RH30 ([8]; 100 nM peptide): 121.38%; % Invasiveness RH30 ([8]; 200 nM peptide): 77.38%; % Invasiveness RH30 ([8]; 500 nM peptide): 65.59%; % Invasiveness RH30 ([8]; 1000 nM peptide): 63.23%; effect on % invasiveness of RH30 cell line (in words) ([8]; concentration not stated (100-1000 nM tested)): diminishing % invasiveness without reaching significance; % Invasiveness SK-N-BE(2)-C ([9]; 100 nM peptide): 84.35%; % Invasiveness SK-N-BE(2)-C ([9]; 200 nM peptide): 91.84%; % Invasiveness SK-N-BE(2)-C ([9]; 500 nM peptide): 73.31* %; % Invasiveness SK-N-BE(2)-C ([9]; 500 nM peptide, listed as SEQ ID NO: 7—NH2): efficacious in inhibiting invasiveness; also recorded: significant reduction; % Invasiveness SK-N-BE(2)-C ([9]; 1000 nM peptide): 52.70* %; Absence of metastases, number of mice [10, 13]: 2; Absence of metastases, percentage of mice [10, 13]: 22%; Presence of metastases (%), percentage of mice [10, 13]: 78%; Presence of metastases, number of mice [10, 13]: 7; event-free survival, percentage of mice ([10]; 1 mg/kg): 22%; event-free survival, number of mice ([10]; 1 mg/kg): 2; Absence of metastases, number of mice [10, 12]: 5; Absence of metastases, percentage of mice [10, 12]: 56%; Presence of metastases (%), percentage of mice [10, 12]: 44%; Presence of metastases, number of mice [10, 12]: 4; event-free survival, percentage of mice ([10]; 2 mg/kg): 56%; event-free survival, number of mice ([10]; 2 mg/kg): 5
